The target in the experiment is GCN2 (Homo sapiens, UniProt Q9P2K8). Description: GCN2 enzymatic endpoint assay: phosphorylation of GFP-eIF2α measured by TR-FRET (Lanthascreen). Type of experiment: biochemical. The following applies: tested as described in Example 77; compound and/or hydrochloride, dihydrochloride or trifluoroacetic acid salt; read-out: IC 50 Activity. In outline:
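Read-out is the TR-FRET ratio of acceptor signal at 520 nm to terbium donor at 495 nm, rising with antibody binding to phosphorylated GFP-eIF2α. Endpoint format: 2 μM ATP, 80 nM substrate, 90 minutes at room temperature, EDTA stop.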
For orientation: In TR-FRET formats the signal depends on donor and acceptor labels being close together.

pIC50: −log10 of the molar value.

Sequence of GCN2 (Q9P2K8 whole entry): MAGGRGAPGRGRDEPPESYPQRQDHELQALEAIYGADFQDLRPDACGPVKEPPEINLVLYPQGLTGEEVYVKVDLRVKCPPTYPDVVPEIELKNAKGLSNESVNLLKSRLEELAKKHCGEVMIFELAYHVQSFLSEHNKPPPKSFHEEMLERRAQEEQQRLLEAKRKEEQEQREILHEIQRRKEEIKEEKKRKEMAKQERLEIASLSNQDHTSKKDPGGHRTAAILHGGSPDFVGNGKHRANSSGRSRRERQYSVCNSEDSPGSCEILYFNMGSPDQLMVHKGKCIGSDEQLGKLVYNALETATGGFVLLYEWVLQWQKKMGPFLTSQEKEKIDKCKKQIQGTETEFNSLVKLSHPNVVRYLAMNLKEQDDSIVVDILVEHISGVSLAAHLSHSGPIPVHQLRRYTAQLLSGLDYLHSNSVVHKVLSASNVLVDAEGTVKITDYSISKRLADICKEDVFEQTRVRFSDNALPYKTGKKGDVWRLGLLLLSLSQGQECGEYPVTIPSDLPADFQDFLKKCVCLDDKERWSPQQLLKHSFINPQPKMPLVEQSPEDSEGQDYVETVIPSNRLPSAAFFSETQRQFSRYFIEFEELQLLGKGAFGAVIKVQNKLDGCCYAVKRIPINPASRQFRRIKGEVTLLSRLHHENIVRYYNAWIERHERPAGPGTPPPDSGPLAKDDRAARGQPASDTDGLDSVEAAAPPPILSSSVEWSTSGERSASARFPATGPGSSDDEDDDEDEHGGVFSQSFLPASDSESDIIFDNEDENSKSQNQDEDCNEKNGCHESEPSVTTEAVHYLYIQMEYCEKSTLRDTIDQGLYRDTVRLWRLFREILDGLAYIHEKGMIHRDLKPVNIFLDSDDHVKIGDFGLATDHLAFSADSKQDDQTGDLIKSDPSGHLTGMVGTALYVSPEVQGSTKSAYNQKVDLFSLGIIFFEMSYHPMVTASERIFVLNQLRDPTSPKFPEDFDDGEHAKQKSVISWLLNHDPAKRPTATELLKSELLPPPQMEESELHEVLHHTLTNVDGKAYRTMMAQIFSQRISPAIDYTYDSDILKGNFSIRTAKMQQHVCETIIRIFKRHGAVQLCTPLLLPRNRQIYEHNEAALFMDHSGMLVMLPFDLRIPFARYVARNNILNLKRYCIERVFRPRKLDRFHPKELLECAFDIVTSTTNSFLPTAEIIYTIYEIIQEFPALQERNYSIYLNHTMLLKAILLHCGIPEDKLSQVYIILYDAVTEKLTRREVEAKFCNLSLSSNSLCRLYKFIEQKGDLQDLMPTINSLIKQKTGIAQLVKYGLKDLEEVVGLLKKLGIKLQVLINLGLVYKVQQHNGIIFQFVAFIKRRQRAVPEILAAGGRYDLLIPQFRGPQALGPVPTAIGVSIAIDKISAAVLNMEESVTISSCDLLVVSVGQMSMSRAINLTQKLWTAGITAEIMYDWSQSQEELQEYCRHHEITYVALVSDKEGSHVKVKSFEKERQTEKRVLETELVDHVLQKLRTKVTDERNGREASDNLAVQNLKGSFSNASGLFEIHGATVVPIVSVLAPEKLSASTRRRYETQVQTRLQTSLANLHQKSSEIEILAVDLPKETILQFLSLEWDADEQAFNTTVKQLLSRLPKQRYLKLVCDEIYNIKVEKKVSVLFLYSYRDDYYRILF

With `CNC(=O)[C@]1(C)CC[C@@H](Nc2ncc3c(Br)nn(-c4cc(C#N)cc(C5CNC5)c4)c3n2)C1` [(1R,3R)-3-[[1-[3-(azetidin-3-yl)-5-cyano-phenyl]-3-bromo-pyrazolo[3,4-d]pyrimidin-6-yl]amino]-N,1-dimethyl-cyclopentane-carboxamide], the pIC50 was 6.70 to 7.60.

As to `CNC(=O)[C@]1(C)CC[C@@H](Nc2ncc3c(Br)nn(-c4ccc(-c5nnc(C)s5)c(OCC5CNC5)c4)c3n2)C1` [(1R,3R)-3-[[1-[3-(azetidin-3-ylmethoxy)-4-(5-methyl-1,3,4-thiadiazol-2-yl)phenyl]-3-bromo-pyrazolo[3,4-d]pyrimidin-6-yl]amino]-N,1-dimethyl-cyclopentane-carboxamide], the pIC50 was 6.70 to 7.60.

For the compound `CNC(=O)[C@]1(C)CC[C@@H](Nc2ncc3c(Br)nn(-c4ccc(-c5ncco5)c(OCC5CNC5)c4)c3n2)C1` [(1R,3R)-3-[[1-[3-(azetidin-3-ylmethoxy)-4-oxazol-2-yl-phenyl]-3-bromo-pyrazolo [3,4-d]pyrimidin-6-yl]amino]-N,1-dimethyl-cyclopentanecarboxamide], the pIC50 was 6.70 to 7.60.

On to `CNC(=O)[C@]1(CC(F)F)CC[C@@H](Nc2ncc3c(Br)nn(-c4cc(C#N)cc(OCC5CNC5)c4)c3n2)C1` [(1R,3R)-3-[[1-[3-(azetidin-3-ylmethoxy)-5-cyano-phenyl]-3-bromo-pyrazolo[3,4-d]pyrimidin-6-yl]amino]-1-(2,2-difluoroethyl)-N-methyl-cyclopentanecarboxamide], for which the pIC50 is 6.70 to 7.60.

In the case of `CNC(=O)[C@]1(C)CC[C@@H](Nc2ncc3c(Br)nn(-c4cc(C#N)cc(OCC5CNC5)c4)c3n2)C1` [(1R,3R)-3-[[1-[3-(azetidin-3-ylmethoxy)-5-cyano-phenyl]-3-bromo-pyrazolo[3,4-d]pyrimidin-6-yl]amino]-N,1-dimethyl-cyclopentanecarboxamide], the pIC50 was greater than 7.60.

Regarding `CNC(=O)[C@]1(C)CC[C@@H](Nc2ncc3c(Br)nn(-c4cc(C#N)cc(OC5CNC5)c4)c3n2)C1` [(1R,3R)-3-[[1-[3-(azetidin-3-yloxy)-5-cyano-phenyl]-3-bromo-pyrazolo[3,4-d]pyrimidin-6-yl]amino]-N,1-dimethyl-cyclopentanecarboxamide], the pIC50 is 6.70 to 7.60.

Take `CNC(=O)[C@]1(C)CC[C@@H](Nc2ncc3c(Br)nn(-c4cc(C#N)cc(CCC5CNC5)c4)c3n2)C1` [(1R,3R)-3-[[1-[3-[2-(azetidin-3-yl)ethyl]-5-cyano-phenyl]-3-bromo-pyrazolo[3,4-d]pyrimidin-6-yl]amino]-N,1-dimethyl-cyclopentanecarboxamide]: the pIC50 is 6.70 to 7.60.

Regarding `C[C@H](N)c1cc(Cl)cc(-n2nc(Br)c3cnc(N[C@@H]4CC[C@@](C)(C(=O)NCC(F)F)C4)nc32)c1` [(1R,3R)-3-[[1-[3-[(1S)-1-aminoethyl]-5-chloro-phenyl]-3-bromo-pyrazolo[3,4-d]pyrimidin-6-yl]amino]-N-(2,2-difluoro-ethyl)-1-methyl-cyclopentanecarboxamide], the pIC50 is 6.70 to 7.60.

For `CNC(=O)[C@]1(C)CC[C@@H](Nc2ncc3c(Br)nn(-c4ccc(-c5ncco5)c([C@H](C)CN)c4)c3n2)C1` [(1R,3R)-3-[[1-[3-[(1S)-2-amino-1-methyl-ethyl]-4-oxazol-2-yl-phenyl]-3-bromo-pyrazolo[3,4-d]pyrimidin-6-yl]amino]-N,1-dimethyl-cyclopentanecarboxamide], the pIC50 is 6.70 to 7.60.

Regarding `CNC(=O)[C@]1(C)CC[C@@H](Nc2ncc3c(Br)nn(-c4ccc(-c5nnc(C(C)(C)N)o5)c(C#N)c4)c3n2)C1` [(1R,3R)-3-[[1-[4-[5-(1-amino-1-methyl-ethyl)-1,3,4-oxadiazol-2-yl]-3-cyano-phenyl]-3-bromo-pyrazolo[3,4-d]pyrimidin-6-yl]amino]-N,1-dimethyl-cyclopentanecarboxamide], the pIC50 was greater than 7.60.

For `CNC(=O)[C@]1(C)CC[C@@H](Nc2ncc3c(Br)nn(-c4ccc(-c5nnc(C(C)(C)N)o5)c(F)c4)c3n2)C1` [(1R,3R)-3-[[1-[4-[5-(1-amino-1-methyl-ethyl)-1,3,4-oxadiazol-2-yl]-3-fluoro-phenyl]-3-bromo-pyrazolo[3,4-d]pyrimidin-6-yl]amino]-N,1-dimethyl-cyclopentanecarboxamide], the pIC50 is 6.70 to 7.60.

On to `CNC(=O)[C@]1(C)CC[C@@H](Nc2ncc3c(Br)nn(-c4ccc(-c5nnc(C(C)(C)N)s5)c(C#N)c4)c3n2)C1` [(1R,3R)-3-[[1-[4-[5-(1-amino-1-methyl-ethyl)-1,3,4-thiadiazol-2-yl]-3-cyano-phenyl]-3-bromo-pyrazolo[3,4-d]pyrimidin-6-yl]amino]-N,1-dimethyl-cyclopentanecarboxamide], for which the pIC50 is 6.70 to 7.60.

With `CNC(=O)[C@]1(C)CC[C@@H](Nc2ncc3c(Br)nn(-c4ccc(-c5nnc(C(C)(C)N)s5)c(F)c4)c3n2)C1` [(1R,3R)-3-[[1-[4-[5-(1-amino-1-methyl-ethyl)-1,3,4-thiadiazol-2-yl]-3-fluoro-phenyl]-3-bromo-pyrazolo[3,4-d]pyrimidin-6-yl]amino]-N,1-dimethyl-cyclopentanecarboxamide], the pIC50 was greater than 7.60.

With `CNC(=O)[C@]1(C)CC[C@@H](Nc2ncc3c(Br)nn(-c4ccc(-c5nnc(C(C)N)s5)cc4)c3n2)C1` (stereo partly drawn) [(1R,3R)-3-[[1-[4-[5-(1-aminoethyl)-1,3,4-thiadiazol-2-yl]phenyl]-3-bromo-pyrazolo [3,4-d]pyrimidin-6-yl]amino]-N,1-dimethyl-cyclopentanecarboxamide], the pIC50 is 6.70 to 7.60.

For the compound `CNC(=O)[C@]1(C)CC[C@@H](Nc2ncc3c(Br)nn(-c4ccc(-c5nnc(CN)s5)cc4)c3n2)C1` [(1R,3R)-3-[[1-[4-[5-(aminomethyl)-1,3,4-thiadiazol-2-yl]phenyl]-3-bromo-pyrazolo [3,4-d]pyrimidin-6-yl]amino]-N,1-dimethyl-cyclopentanecarboxamide], the pIC50 is 6.70 to 7.60.

Regarding `CNC(=O)[C@]1(C)CC[C@@H](Nc2ncc3c(Br)nn(-c4cc(CCN)c5c(c4)CCO5)c3n2)C1` [(1R,3R)-3-[[1-[7-(2-aminoethyl)-2,3-dihydrobenzofuran-5-yl]-3-bromo-pyrazolo [3,4-d]pyrimidin-6-yl]amino]-N,1-dimethyl-cyclopentanecarboxamide], the pIC50 was 6.70 to 7.60.

Turning to `CNC(=O)[C@]1(C)CC[C@@H](Nc2ncc3c(Br)nn(-c4cc(CCNC(C)=O)c5ncccc5c4)c3n2)C1` [(1R,3R)-3-[[1-[8-(2-acetamidoethyl)-6-quinolyl]-3-bromo-pyrazolo[3,4-d]pyrimidin-6-yl]amino]-N,1-dimethyl-cyclopentane-carboxamide], the pIC50 was 6.70 to 7.60.

Consider `CNC(=O)[C@]1(C)CC[C@@H](Nc2ncc3c(Br)nn(-c4cc(CCN)c5ncc(C#N)cc5c4)c3n2)C1` [(1R,3R)-3-[[1-[8-(2-aminoethyl)-3-cyano-6-quinolyl]-3-bromo-pyrazolo[3,4-d]pyrimidin-6-yl]amino]-N,1-dimethyl-cyclopentane-carboxamide], for which the pIC50 is 6.70 to 7.60.

For the compound `CNC(=O)[C@]1(C)CC[C@@H](Nc2ncc3c(Br)nn(-c4cnc5c(CCN)cccc5c4)c3n2)C1` [(1R,3R)-3-[[1-[8-(2-aminoethyl)-3-quinolyl]-3-bromo-pyrazolo[3,4-d]pyrimidin-6-yl]amino]-N,1-dimethyl-cyclopentane-carboxamide], the pIC50 is 6.70 to 7.60.

Values taken from patent US11046699B2, “Pyrazolo-pyrimidin-amino-cycloalkyl compounds and their therapeutic uses” (RAPT THERAPEUTICS, INC., priority 2018, dated 2021).
